According to patent US20240254118A1, “PRMT5 INHIBITORS AND USES THEREOF” (Gilead Sciences, Inc., priority 2022, published 2024):
pEC50: −log10 of the molar value.

Assays:
[1] = test system: HCT116 MTAP-deleted cells; experiment: Cell viability assay (CellTiter-Glo, 7 days), HCT116 MTAP-deleted; conditions: Homo sapiens, HCT-116, 168 h
[2] = test system: SDMA signal (PRMT5 inhibition) in HCT116 MTAP-deleted cells; experiment: Symmetric di-methyl arginine image-based high content screen assay (SDMA assay), HCT116 MTAP-deleted; format: cell-based; conditions: SDMA assay; for pEC50: Homo sapiens, HCT-116, 72 h, 3 days of treatment, cell line not given, taken as HCT116 MTAP-deleted, read-out: EC50 (SDMA assay)
Procedure, shortened: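 Read-out: per-cell mean SDMA immunofluorescence (Alexa Fluor 488 secondary), cells segmented by DAPI on a high-content imager. Compound exposure in HCT116 MTAP-deleted cells lasted until fixation on Day 3; overnight 4° C primary anti-SDMA antibody staining.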

[3] = taken as HCT116 WT versus MTAP-deleted
[4] = taken as HCT116 WT vs MTAP-deleted

`CC(=O)N(C)N(Cc1cccc2c1OC(F)(F)O2)C(=O)c1ccc2nc(N)c3cnn(C)c3c2c1` [Example 307, N′-acetyl-4-amino-N-((2,2-difluorobenzo[d][1,3]dioxol-4-yl)methyl)-N′,1-dimethyl-1H-pyrazolo[4,3-c]quinoline-8-carbohydrazide] was tested, and the CC50 [1] was under 100 nM, the pEC50 [2] was over 9.00 and the “EC50 selectivity (SDMA assay)” value [2, 3] was 359.

For `Cc1scnc1C(=O)N(C)N(Cc1ccc(C(F)(F)F)cn1)C(=O)c1ccc2nc(N)c3cnn(C)c3c2c1` [Example 226, N′-(4-amino-1-methyl-1H-pyrazolo[4,3-c]quinoline-8-carbonyl)-N,5-dimethyl-N′-((5-(trifluoromethyl)pyridin-2-yl)methyl)thiazole-4-carbohydrazide], the CC50 [1] was under 100 nM, the pEC50 [2] was 8.30 to 9.00 and the “EC50 selectivity (SDMA assay)” value [2, 3] was 86.

`CC(=O)N(C)N(Cc1ccc(-c2cnn(C(F)(F)F)c2)cc1)C(=O)c1ccc2nc(N)c3cnn(C)c3c2c1` [Example 375, N′-acetyl-4-amino-N′,1-dimethyl-N-[[4-[1-(trifluoromethyl)pyrazol-4-yl]phenyl]methyl]pyrazolo[4,3-c]quinoline-8-carbohydrazide] was tested, and the CC50 [1] was under 100 nM, the pEC50 [2] was 8.30 to 9.00 and the “EC50 selectivity (SDMA assay)” value [2, 3] was 141.

With `CC(=O)N(C)N(Cc1c(F)cc(F)cc1F)C(=O)c1ccc2nc(N)c3cnn(C)c3c2c1` [Example 413, N′-acetyl-4-amino-N′,1-dimethyl-N-(2,4,6-trifluorobenzyl)-1H-pyrazolo[4,3-c]quinoline-8-carbohydrazide] the CC50 [1] was under 100 nM, the pEC50 [2] was over 9.00 and the “EC50 selectivity (SDMA assay)” value [2, 4] was 497.

With `COC(C)(C)C(=O)N(C)N(Cc1ccc(C(F)(F)F)cn1)C(=O)c1ccc2nc(N)c3cnn(C)c3c2c1` [Example 201, 4-amino-N′-(2-methoxy-2-methyl-propanoyl)-N′,1-dimethyl-N-[[5-(trifluoromethyl)-2-pyridyl]methyl]pyrazolo[4,3-c]quinoline-8-carbohydrazide] the CC50 [1] was under 100 nM, the pEC50 [2] was 8.30 to 9.00 and the “EC50 selectivity (SDMA assay)” value [2, 3] was 423.

In the case of `CN(C(=O)C1(F)CC1)N(Cc1ccc(C(F)(F)F)nn1)C(=O)c1cc2c(cc1F)nc(N)c1cnn(C)c12` [Example 194, 4-amino-7-fluoro-N′-(1-fluorocyclopropanecarbonyl)-N′, 1-dimethyl-N-[[6-(trifluoromethyl)pyridazin-3-yl]methyl]pyrazolo[4,3-c]quinoline-8-carbohydrazide], the CC50 [1] was under 100 nM, the pEC50 [2] was over 9.00 and the “EC50 selectivity (SDMA assay)” value [2, 3] was 68.

For `[2H]C1([2H])C([2H])([2H])C1([2H])C(=O)N(C)N(Cc1ccc(C(F)(F)F)cn1)C(=O)c1ccc2nc(N)c3cnn(C)c3c2c1` [Example 305, 4-amino-N′-(cyclopropane-1-carbonyl-d5)-N′,1-dimethyl-N-((5-(trifluoromethyl)pyridin-2-yl)methyl)-1H-pyrazolo[4,3-c]quinoline-8-carbohydrazide], the CC50 [1] was under 100 nM, the pEC50 [2] was over 9.00 and the “EC50 selectivity (SDMA assay)” value [2, 3] was 75.

For `CC(=O)N(C)N(Cc1sc2ccccc2c1Cl)C(=O)c1ccc2nc(N)c3cnn(C)c3c2c1` [Example 442, N′-acetyl-4-amino-N-((3-chlorobenzo[b]thiophen-2-yl)methyl)-N′,1-dimethyl-1H-pyrazolo[4,3-c]quinoline-8-carbohydrazide], the CC50 [1] was under 100 nM, the pEC50 [2] was over 9.00 and the “EC50 selectivity (SDMA assay)” value [2, 4] was 163.

In the case of `COc1ccc(CN(C(=O)c2ccc3nc(N)c4cnn(C)c4c3c2)N(C)C(C)=O)c(F)c1` [Example 16, N′-acetyl-4-amino-N-(2-fluoro-4-methoxybenzyl)-N′,1-dimethyl-1H-pyrazolo[4,3-c]quinoline-8-carbohydrazide], the CC50 [1] was under 100 nM, the pEC50 [2] was over 9.00 and the “EC50 selectivity (SDMA assay)” value [2, 3] was 306.

With `CN(C(=O)C1CC1)N(Cc1ccc(-c2cnn(C(F)(F)F)c2)cc1Cl)C(=O)c1ccc2nc(N)c3cnn(C)c3c2c1` [Example 376, 4-amino-N-[[2-chloro-4-[1-(trifluoromethyl)pyrazol-4-yl]phenyl]methyl]-N′-(cyclopropanecarbonyl)-N′,1-dimethyl-pyrazolo[4,3-c]quinoline-8-carbohydrazide] the CC50 [1] was under 100 nM, the pEC50 [2] was 8.30 to 9.00 and the “EC50 selectivity (SDMA assay)” value [2, 3] was 164.

`Cn1ncc2c(N)nc3ccc(C(=O)N(Cc4ccc(C(F)(F)F)cn4)N4CCOCC4=O)cc3c21` [Example 62, 4-amino-1-methyl-N-(3-oxomorpholin-4-yl)-N-[[5-(trifluoromethyl)-2-pyridyl]methyl]pyrazolo[4,3-c]quinoline-8-carboxamide] was tested, and the CC50 [1] was under 100 nM, the pEC50 [2] was over 9.00 and the “EC50 selectivity (SDMA assay)” value [2, 3] was 94.

`Nc1nc2ccc(C(=O)N(Cc3ccc(C(F)(F)F)cn3)N3CCCCC3=O)cc2c2c1COC2` [Example 30, 4-amino-N-(2-oxo-1-piperidyl)-N-[[5-(trifluoromethyl)-2-pyridyl]methyl]-1,3-dihydrofuro[3,4-c]quinoline-8-carboxamide] was tested, and the CC50 [1] was under 100 nM, the pEC50 [2] was over 9.00 and the “EC50 selectivity (SDMA assay)” value [2, 3] was 101.

With `CC(=O)N(C)N(Cc1cc2ccc(Cl)cn2n1)C(=O)c1ccc2nc(N)c3cnn(C)c3c2c1` [Example 403, N′-acetyl-4-amino-N-((6-chloropyrazolo[1,5-a]pyridin-2-yl)methyl)-N′,1-dimethyl-1H-pyrazolo[4,3-c]quinoline-8-carbohydrazide] the CC50 [1] was under 100 nM, the pEC50 [2] was over 9.00 and the “EC50 selectivity (SDMA assay)” value [2, 4] was 476.

For `CC(=O)N(c1ccccc1)N(Cc1ccc(C(F)(F)F)cn1)C(=O)c1ccc2nc(N)c3cnn(C)c3c2c1` [Example 6, N′-acetyl-4-amino-1-methyl-N′-phenyl-N-((5-(trifluoromethyl)pyridin-2-yl)methyl)-1H-pyrazolo[4,3-c]quinoline-8-carbohydrazide], the CC50 [1] was under 100 nM, the pEC50 [2] was over 9.00 and the “EC50 selectivity (SDMA assay)” value [2, 3] was 286.

For `CN(C(=O)C1CC1)N(Cc1cccc2c1OC(F)(F)O2)C(=O)c1ccc2nc(N)c3cnn(C)c3c2c1` [Example 302, 4-amino-N′-(cyclopropanecarbonyl)-N-((2,2-difluorobenzo[d][1,3]dioxol-4-yl)methyl)-N′,1-dimethyl-1H-pyrazolo[4,3-c]quinoline-8-carbohydrazide], the CC50 [1] was under 100 nM, the pEC50 [2] was 8.30 to 9.00 and the “EC50 selectivity (SDMA assay)” value [2, 3] was 248.

In the case of `Cn1ncc2c(N)nc3ccc(C(=O)N(Cc4ccc(C(F)(F)F)cn4)NC(=O)C4(F)CC4)cc3c21` [Example 308, 4-amino-N′-(1-fluorocyclopropane-1-carbonyl)-1-methyl-N-((5-(trifluoromethyl)pyridin-2-yl)methyl)-1H-pyrazolo[4,3-c]quinoline-8-carbohydrazide], the CC50 [1] was under 100 nM, the pEC50 [2] was over 9.00 and the “EC50 selectivity (SDMA assay)” value [2, 3] was 122.

With `Cn1ncc2c(N)nc3ccc(C(=O)N(Cc4cn5cc(F)ccc5n4)N4CCCCC4=O)cc3c21` [Example 90, 4-Amino-N-[(6-fluoroimidazo[1,2-a]pyridin-2-yl)methyl]-1-methyl-N-(2-oxo-1-piperidyl)pyrazolo[4,3-c]quinoline-8-carboxamide] the CC50 [1] was under 100 nM, the pEC50 [2] was 8.30 to 9.00 and the “EC50 selectivity (SDMA assay)” value [2, 3] was 53.

In the case of `CN(C(=O)c1ncco1)N(Cc1ccc(C(F)(F)F)cc1F)C(=O)c1ccc2nc(N)c3cnn(C)c3c2c1` [Example 165, N′-(4-amino-1-methyl-1H-pyrazolo[4,3-c]quinoline-8-carbonyl)-N′-(2-fluoro-4-(trifluoromethyl)benzyl)-N-methyloxazole-2-carbohydrazide], the CC50 [1] was under 100 nM, the pEC50 [2] was over 9.00 and the “EC50 selectivity (SDMA assay)” value [2, 3] was 11.
